Reference: PubChem BioAssay (NCI)
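Results reflect a 48-hour exposure of cells in 96-well plates to compound at five concentrations. The concentration for full growth arrest is given as TGI.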

Key:
Test in all cases: growth of human tumour cells (NCI), 48 h
SF-539 CNS = system: SF-539 CNS
SK-MEL-2 melanoma = system: SK-MEL-2 melanoma
NCI-H460 lung = system: NCI-H460 lung
NCI-H226 lung = system: NCI-H226 lung
SK-MEL-5 melanoma = system: SK-MEL-5 melanoma
MDA-MB-231 breast = system: MDA-MB-231 breast
HT29 colon = system: HT29 colon
MALME-3M melanoma = system: MALME-3M melanoma
HCC-2998 colon = system: HCC-2998 colon
UACC-257 melanoma = system: UACC-257 melanoma
OVCAR-5 ovarian = system: OVCAR-5 ovarian
SF-268 CNS = system: SF-268 CNS
U251 CNS = system: U251 CNS
CAKI-1 renal = system: CAKI-1 renal
SNB-75 CNS = system: SNB-75 CNS
HOP-62 NSCLC = system: HOP-62 NSCLC
HL-60(TB) leukemia = system: HL-60(TB) leukemia
A498 renal = system: A498 renal
T-47D breast = system: T-47D breast
ACHN renal = system: ACHN renal
MDA-N = system: MDA-N
M14 melanoma = system: M14 melanoma
SN12C renal = system: SN12C renal
SF-295 CNS = system: SF-295 CNS
UO-31 renal = system: UO-31 renal
HCT-15 colon = system: HCT-15 colon
A549 NSCLC = system: A549 NSCLC
K-562 leukemia = system: K-562 leukemia
MCF7 breast = system: MCF7 breast
DU-145 prostate = system: DU-145 prostate
HS 578T breast = system: HS 578T breast
SNB-19 CNS = system: SNB-19 CNS
OVCAR-3 ovarian = system: OVCAR-3 ovarian
CCRF-CEM leukemia = system: CCRF-CEM leukemia
NCI/ADR-RES ovarian = system: NCI/ADR-RES ovarian
786-0 renal = system: 786-0 renal
NCI-H23 lung = system: NCI-H23 lung
COLO 205 colon = system: COLO 205 colon
SK-OV-3 ovarian = system: SK-OV-3 ovarian
UACC-62 melanoma = system: UACC-62 melanoma
MDA-MB-435 = system: MDA-MB-435
NCI-H522 lung = system: NCI-H522 lung
KM12 colon = system: KM12 colon
RPMI-8226 leukemia = system: RPMI-8226 leukemia
MOLT-4 leukemia = system: MOLT-4 leukemia
SK-MEL-28 melanoma = system: SK-MEL-28 melanoma
LOX IMVI melanoma = system: LOX IMVI melanoma
PC-3 prostate = system: PC-3 prostate
RXF 393 renal = system: RXF 393 renal
OVCAR-8 ovarian = system: OVCAR-8 ovarian
TK-10 renal = system: TK-10 renal
HCT-116 colon = system: HCT-116 colon

Measured: TGI

Oc1ccc[n+](Cc2ccccc2)c1
> 100 µM: all assays above
